Where two headings read alike, the source gives them in different places.
How the values were obtained:
[1] = molecular target: T1, Human recombinant Keap1 proteins (Homo sapiens, UniProt Q14145); experiment: SPR binding to full-length Keap1; parameters: purchased Sinobiological ME18DE0203; conditions: read-out: KD of Oma (Keap1)
Method: The binding affinity of Cpd.51 or Oma to Keap1 proteins were measured using a Biacore T200. The overall experimental procedures were based on previous reports, [28]. Human recombinant Keap1 proteins or truncated form of Keap1 (residues 48-180 and residues 48-149) were captured on a CM5 chip by a standard amine coupling procedure. Binding sensorgrams were recorded by injecting various concentrations of Cpd.51 over the immobilized proteins surface. The dissociation constant was obtained by globally fitting the data (to the 1:1 Langmuir binding model using the Biacore Insight evaluation software (Cytiva, Marlborough, MA, USA). Affinity tests for Cpd.51 and DHRS3 were also performed using the aforementioned method.

[2] = Acute (7-day i.v.) toxicity in rats; format: in vivo, rat; conditions: 10 mg/kg i.v. daily for 7 days
Method: Cpd.51 was dissolved in solvent (10% DMSO, 10% Solutol HS-15 and 80% saline). It was injected (i.v.) at dose of 3 mg/kg or 5 mg/kg in a 0.5 mL volume. The Sham group and Vehicle group were treated simultaneously with an equal volume of solvent. In the experiment to explore the treatment time window, we merely administered the drug to the rats at different time points, while all other procedures remained unchanged. In the short-term toxicity study, 10 mg/kg Cpd.51 and Oma were administered via tail vein injection at 0.5 mL daily for 7 consecutive days.
Glutamic-pyruvic transaminase (GPT) kits (ml092635, mlbio, China), glutamic oxaloacetic transaminase (GOT) kits (ml092714, mlbio, China), creatinine (CRE) kits (M12C4L, mlbio, China) and blood urea nitrogen (BUN) kits (ml076479, China) were used to detect the serum of rats in order to evaluate liver and kidney functions. Male and female rats were randomly divided into Sham group, Cpd.51 group and Oma group. Doses were administered once daily at 10 mg/kg and body weights were recorded accordingly. Sham groups were given the same volume of solvent. After 7 days, the […] were sacrificed, serum was collected and tested according to the instructions.

[3] = parameters: method as in PMID 37155124; conditions: clinical; cited from earlier work
[4] = tested on: ARE-luciferase reporter (Nrf2 activation), Hek-293T cells; experiment: ARE-luciferase reporter gene assay; format: cell-based; conditions: Homo sapiens; Hek-293T cells, 12 h after drug treatment
Method: The Hek-293T cells were cultured in 96-well plates 24 h before transfection with ARE-luciferase reporter plasmid (11548ES03, Yeasen, China) for 48 h according to the manufacturer's instructions. The Firefly luciferase activities was carried out 12 h after the drug treatment, as described by the manufacturer (11412ES81, Yeasen, China).

[5] = parameters: method as in PMID 40455368; conditions: 28-day, oral 10 mg/kg, rats; cited from earlier work
[6] = cited from earlier work
[7] = 28-day long-term toxicity in rats (intragastric); format: in vivo, rat; conditions: 28 days intragastric
Method: During the long-term toxicity test, rats in each group received daily intragastric administration for 28 consecutive days. Animals in the Sham group were administered a mixture of 99% sesame oil and 1% DMSO at a volume of 0.5 mL per rat. Rats in the remaining groups were intragastrically administered varying doses of the respective therapeutic agents.
During the 28-day long-term toxicity study, rats were euthanized following the completion of continuous intragastric administration. Livers and kidneys from both male and female rats in each group were photographed for macroscopic examination, and serum samples were collected for subsequent kit-based analysis. The liver/kidney index was obtained by dividing the weight of the liver/kidney by the body weight.

[8] = tested on: SH-SY5Y cells; experiment: Cytotoxicity in SH-SY5Y cells, 24 h incubation; format: cell-based; conditions: Homo sapiens
[9] = tested on: tMCAO rats; experiment: Long-term recovery after tMCAO (survival, body weight, behaviour); format: in vivo, rat; conditions: 5 mg/kg tail vein injection for 7 d
Method: To assess the degree of neurological impairment, we conducted modified Neurological Severity Score (mNSS) according to previous experience. The investigator was blinded to the grouping situation during the whole experiment.
On postoperative day 3 two wooden boards of identical size were joined at a 30° angle, with a narrow gap retained at the junction. The rat was positioned facing the apex of the angle. When it advanced into the deeper part of the angle, bilateral whisker contact with the boards triggered a characteristic rearing response, followed by a turn to face the opposite direction. Each rat underwent 15 trials, and the number of right turns was recorded. The higher the right-turn ratio, the more severe the injury.
Rats were placed on a horizontal, stainless steel wire grid. The grid was then smoothly rotated 180 degrees to an inverted position and held stationary at a height of 0.8 m. A stopwatch was started immediately upon inversion to measure the latency to fall. The test was terminated if the animal remained on the grid for 60 s, at which point it was gently returned to its home cage, and a score of 60 s was recorded.
The Y-maze apparatus consisted of three symmetrically arranged enclosed arms (typically labeled Arms A, B, and C), each positioned 120° apart. At the start of each trial, the subject was placed in Arm A and allowed to move freely through the maze for 8 min. Spatial working memory was evaluated by calculating the spontaneous alternation rate, using the following formula:
Following a 2 h acclimation period, the rats were within an open field cubic box (100 × 100 × 40 cm^3) and allowed 5 min of unrestricted movement. The travel distance and the time spent in the central area were recorded.
The spatial learning and memory of rats were assessed using the Morris water maze (MWM) from post-operative days 23 to 26. Over four consecutive days, animals underwent training trials in which they were required to locate a submerged escape platform within 60 s. Each rat was gently placed into the water facing the pool wall. If the rat found the platform and remained on it for 10 s, the escape latency was recorded. If the platform was not found within 60 s, the rat was guided onto it and allowed to stay for 10 s, and the latency was recorded as 60 s. Following the training phase, the platform was removed, and a visual spatial memory test lasting for 60 s was conducted to assess the retention of memory. The number of platform-location crossings and the time spent in the target quadrant were recorded and analyzed.

[10] = tested on: SH-SY5Y cells; experiment: Protection against OGD/R damage in SH-SY5Y cells (CCK-8); format: cell-based, human
Method: To mimic ischemic conditions in vitro, cells were washed with PBS and then cultured for 2.5 h at 37 °C in glucose-free medium under anaerobic conditions (5% hydrogen, 90% nitrogen, and 5% carbon dioxide). OGD process was terminated by transferring cells back to normal glucose-containing medium under normoxic conditions (5% CO₂, 37 °C) and maintained for 24 h.
In the administration group, cells were exposed for 12 h with Cpd.51 prior to OGD. OGD lasted for 2.5 h and the reperfusion lasted for 24 h before the experiment was concluded. Subsequently, cell viability was determined using the cell counting kit-8 (CCK-8, C0039, Beyotime, China). In the experiment to explore the treatment time window, the only difference was the timing of the Cpd.51 treatment, while all other procedures remained unchanged.
Hek-293T cells were transiently transfected, using Lipofectamine™ 3000 and P3000™ reagent (L3000075, Invitrogen, USA) according to the manufacturer's instructions, with the wild-type, point-mutant and double-mutations constructs of Keap1, DHRS3 or Nrf2 (each at 0.5 ng/μL), respectively. Similarly, to promote the expression of the DHRS3 gene, a DHRS3 expression plasmids (0.5 ng/μL) was transfected as well as the corresponding negative controls into SH-SY5Y cells for 6 h, and further cultured with fresh medium for 18 h according to the manufacturer's instructions.

[11] = molecular target: T1, Human recombinant Keap1 proteins; conditions: cited from earlier work
[12] = Oma 10 mg/kg, Cpd.51 1, 3 and 10 mg/kg

T1 sequence (Q14145 whole entry, the tested form may be a part): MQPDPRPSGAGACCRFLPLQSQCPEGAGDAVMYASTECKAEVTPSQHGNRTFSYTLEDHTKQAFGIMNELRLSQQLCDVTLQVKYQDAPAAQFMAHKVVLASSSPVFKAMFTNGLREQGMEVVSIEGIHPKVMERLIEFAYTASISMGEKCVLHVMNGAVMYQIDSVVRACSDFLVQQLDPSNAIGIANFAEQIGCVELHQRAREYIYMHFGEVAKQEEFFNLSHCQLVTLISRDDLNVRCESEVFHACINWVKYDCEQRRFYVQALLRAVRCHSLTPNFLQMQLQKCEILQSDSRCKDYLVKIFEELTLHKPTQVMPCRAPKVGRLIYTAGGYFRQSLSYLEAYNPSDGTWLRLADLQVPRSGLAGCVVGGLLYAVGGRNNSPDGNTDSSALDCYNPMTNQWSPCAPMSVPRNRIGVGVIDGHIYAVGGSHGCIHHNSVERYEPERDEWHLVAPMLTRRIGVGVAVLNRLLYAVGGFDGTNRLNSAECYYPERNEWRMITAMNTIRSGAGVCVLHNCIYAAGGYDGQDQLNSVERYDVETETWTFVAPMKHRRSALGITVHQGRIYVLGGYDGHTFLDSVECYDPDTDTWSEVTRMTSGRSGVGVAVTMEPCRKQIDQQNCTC
Sequence of Nrf2 (Q16236 whole entry): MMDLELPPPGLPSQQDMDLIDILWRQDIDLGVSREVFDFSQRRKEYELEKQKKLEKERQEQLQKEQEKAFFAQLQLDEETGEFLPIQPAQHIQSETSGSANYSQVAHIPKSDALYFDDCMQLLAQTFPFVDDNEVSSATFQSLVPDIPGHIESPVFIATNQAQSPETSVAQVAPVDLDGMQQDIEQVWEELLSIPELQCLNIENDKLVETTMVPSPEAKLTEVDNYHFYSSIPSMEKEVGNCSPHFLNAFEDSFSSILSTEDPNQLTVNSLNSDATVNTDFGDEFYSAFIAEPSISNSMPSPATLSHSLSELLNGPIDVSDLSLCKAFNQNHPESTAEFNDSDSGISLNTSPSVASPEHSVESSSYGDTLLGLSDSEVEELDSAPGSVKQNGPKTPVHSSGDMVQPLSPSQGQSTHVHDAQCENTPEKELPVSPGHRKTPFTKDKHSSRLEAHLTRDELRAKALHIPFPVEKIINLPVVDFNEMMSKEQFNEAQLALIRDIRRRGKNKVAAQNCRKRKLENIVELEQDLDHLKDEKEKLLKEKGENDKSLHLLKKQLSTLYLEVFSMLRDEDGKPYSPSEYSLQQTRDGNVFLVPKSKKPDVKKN

Row | Molecule | Kd [1] [nM] | liver hypertrophy, serum GPT and GOT [2] | serum CRE and BUN [2] | weight gain [2] | apparent volume of distribution (Vd) [3] [L/kg] | terminal half-life (T1/2) [3] [h] | EC50 [4] [nM] | hepatotoxicity (liver weight, plasma ALT) [5] | patients developing liver injury during clinical trials [6] | liver and kidney indices ([7]; 10 mg/kg, female and male rats) | body weight [7, 12] | plasma markers of hepatic and renal injury [7, 12] | IC50 [8] [nM] | body weight and mNSS scores, long-term [9] | corner, inverted screen, Y maze and open field tests ([9]; vs model group) | OGD/R damage when administered at different time points ([10]; 100 nM, CCK-8) | EC50 ([10]; Homo sapiens, SH-SY5Y, read-out: EC50 against OGD/R damage) [nM] | Kd [11] [nM]
1 | CC1(C)CC[C@]2(NC(=O)C(C)(F)F)CC[C@]3(C)[C@H](C(=O)C=C4[C@@]5(C)C=C(C#N)C(=O)C(C)(C)[C@@H]5CC[C@]43C)[C@@H]2C1 [Oma, Omaveloxolone, reference compound] | 21.7 | marked liver hypertrophy and elevated serum levels of glutamic-pyruvic transaminase (GPT) and glutamic oxaloacetic transaminase (GOT) | increased serum creatinine (CRE) and blood urea nitrogen (BUN) levels | suppressed weight gain | ~105 | ~57 | 104 | induced hepatotoxicity | ~ 37% | markedly increased the liver and kidney indices | neither compound significantly affected body weight | significantly elevated plasma markers of hepatic and renal injury | 758 | significantly improved body weight and mNSS scores | exhibited improvements in neurological deficits, motor abilities, and spatial working and reference memory | consistently alleviated OGD/R damage | 80.8 | 
2 | Nrf2 (from UniProt Q16236) |  |  |  |  |  |  |  |  |  |  |  |  |  |  |  |  |  | 19

— PMC13081163, “Discovery of a novel Nrf2 activator that modulates mitochondrial function in neurons by regulating DHRS3-Nrf2 interaction after ischemic stroke” (Theranostics, 2026)
